Results as given in patent publication US9328106B2, “Cyclic ether pyrazol-4-yl-heterocyclyl-carboxamide compounds and methods of use” (Genentech, Inc., priority 2012, dated 2016).

These compounds were tested against PIM1 (Homo sapiens (Human), UniProt P11309) (assay: biochemical). Settings: 20 pM PIM1, 1 μM FAM-peptide, 10 μM ATP, 90 minutes at room temperature; read-out: PIM1 LC3K (KI).
Format: biochemical

Sequence of PIM1 (P11309 whole entry): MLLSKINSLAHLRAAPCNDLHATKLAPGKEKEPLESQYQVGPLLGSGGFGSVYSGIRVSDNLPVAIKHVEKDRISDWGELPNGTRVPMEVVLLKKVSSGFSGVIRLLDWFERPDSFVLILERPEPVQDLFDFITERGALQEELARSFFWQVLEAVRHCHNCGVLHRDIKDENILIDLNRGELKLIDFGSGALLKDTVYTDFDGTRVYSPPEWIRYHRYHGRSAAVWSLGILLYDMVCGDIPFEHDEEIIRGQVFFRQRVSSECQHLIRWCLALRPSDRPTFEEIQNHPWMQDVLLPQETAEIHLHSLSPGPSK

Compound | Ki [nM]
Cn1ncc(NC(=O)c2nc(C3=CCCC3)sc2N)c1[C@@H]1CC[C@@H](N)[C@H](F)CO1 [Example 333, 5-amino-N-(5-((2S,5R,6S)-5-amino-6-fluorooxepan-2-yl)-1-methyl-1H-pyrazol-4-yl)-2-(cyclopent-1-en-1-yl)thiazole-4-carboxamide] | 0.03
Cn1ncc(NC(=O)c2csc(-n3cccn3)n2)c1[C@@H]1CC[C@@H](N)[C@H](F)CO1 [Example 388, N-(5-((2S,5R,6S)-5-amino-6-fluorooxepan-2-yl)-1-methyl-1H-pyrazol-4-yl)-2-(1H-pyrazol-1-yl)thiazole-4-carboxamide] | 0.157
Cn1ncc(NC(=O)c2csc(-c3ccccc3C(F)F)n2)c1[C@@H]1CC[C@@H](N)[C@H](F)CO1 [Example 298, N-(5-((2S,5R,6S)-5-amino-6-fluorooxepan-2-yl)-1-methyl-1H-pyrazol-4-yl)-2-(2-(difluoromethyl)phenyl)thiazole-4-carboxamide] | 0.783
Cn1ncc(NC(=O)c2nc(-c3c(F)cccc3F)sc2N)c1[C@H]1CC[C@H](N)C(F)(F)CO1 [Example 169, 5-Amino-N-[5-[(2R,5S)-5-amino-6,6-difluoro-oxepan-2-yl]-1-methyl-pyrazol-4-yl]-2-(2,6-difluorophenyl)thiazole-4-carboxamide] | 0.341
CN(C)C(=O)c1ccc(F)c(-c2nc(C(=O)Nc3cnn(C)c3[C@@H]3CC[C@@H](N)[C@H](F)CO3)cs2)c1F [Example 376, N-[5-[(2S,5R,6S)-5-amino-6-fluoro-oxepan-2-yl]-1-methyl-pyrazol-4-yl]-2-[3-(dimethylcarbamoyl)-2,6-difluoro-phenyl]thiazole-4-carboxamide] | 0.727
Cn1ncc(NC(=O)c2csc(-c3cc(C4CC4)ccc3F)n2)c1[C@@H]1CC[C@@H](N)[C@H](F)CO1 [Example 310, N-(5-((2S,5R,6S)-5-amino-6-fluorooxepan-2-yl)-1-methyl-1H-pyrazol-4-yl)-2-(5-cyclopropyl-2-fluorophenyl)thiazole-4-carboxamide] | 0.093
CC(C)n1cc(-c2nc(C(=O)Nc3cnn(C)c3[C@@H]3CC[C@@H](N)[C@@H](F)CO3)c(N)s2)cn1 [Example 256, 5-amino-N-(5-((2S,5R,6R)-5-amino-6-fluorooxepan-2-yl)-1-methyl-1H-pyrazol-4-yl)-2-(1-isopropyl-1H-pyrazol-4-yl)thiazole-4-carboxamide] | 0.093
Cn1ncc(NC(=O)c2csc(-n3ncc4ccccc43)n2)c1[C@@H]1CC[C@@H](N)[C@H](F)CO1 [Example 395, N-(5-((2S,5R,6S)-5-amino-6-fluorooxepan-2-yl)-1-methyl-1H-pyrazol-4-yl)-2-(1H-indazol-1-yl)thiazole-4-carboxamide] | 0.085
Cn1ncc(NC(=O)c2ccc(F)c(-c3c(F)cc(OC4CCOCC4)cc3F)n2)c1[C@@H]1CC[C@@H](N)[C@@H](F)CO1 [Example 188, N-(5-((2S,5R,6R)-5-Amino-6-fluorooxepan-2-yl)-1-methyl-1H-pyrazol-4-yl)-6-(2,6-difluoro-4-((tetrahydro-2H-pyran-4-yl)oxy)phenyl)-5-fluoropicolinamide] | 0.03
Cn1ncc(NC(=O)c2ccc(F)c(-c3c(F)cc(C(O)(CO)CO)cc3F)n2)c1[C@@H]1CC[C@@H](N)[C@@H](F)CO1 [Example 212, N-(5-((2S,5R,6R)-5-amino-6-fluorooxepan-2-yl)-1-methyl-1H-pyrazol-4-yl)-6-(2,6-difluoro-4-(1,2,3-trihydroxypropan-2-yl)phenyl)-5-fluoropicolinamide] | 0.162
Cn1ncc(NC(=O)c2nc(-c3ccccc3C(F)(F)F)sc2N)c1[C@@H]1CC[C@@H](N)[C@@H](F)CO1 [Example 270, 5-amino-N-(5-((2S,5R,6R)-5-amino-6-fluorooxepan-2-yl)-1-methyl-1H-pyrazol-4-yl)-2-(2-(trifluoromethyl)phenyl)thiazole-4-carboxamide] | 0.053
Cn1ncc(NC(=O)c2ccc(F)c(-c3c(F)cccc3F)n2)c1[C@@H]1CC[C@@H](N)[C@H](F)CO1 [Example 195, N-(5-((2S,5R,6S)-5-amino-6-fluorooxepan-2-yl)-1-methyl-1H-pyrazol-4-yl)-6-(2,6-difluorophenyl)-5-fluoropicolinamide] | 0.025
CC1C(c2c(NC(=O)c3nc(-c4c(F)cccc4F)sc3N)cnn2C)OCC(C)(O)C1N (centres unmarked) [Example 142, 5-amino-N-[5-(4-amino-5-hydroxy-3,5-dimethyl-tetrahydropyran-2-yl)-1-methyl-pyrazol-4-yl]-2-(2,6-difluorophenyl)thiazole-4-carboxamide] | 0.441
Cn1cc(-c2nc(C(=O)Nc3cnn(C)c3[C@@H]3CC[C@@H](N)[C@@H](F)CO3)cs2)c(C2CC2)n1 [Example 253, N-(5-((2S,5R,6R)-5-amino-6-fluorooxepan-2-yl)-1-methyl-1H-pyrazol-4-yl)-2-(3-cyclopropyl-1-methyl-1H-pyrazol-4-yl)thiazole-4-carboxamide] | 0.253
COc1ccc(C(F)F)c(F)c1-c1nc(C(=O)Nc2cnn(C)c2[C@@H]2CC[C@@H](N)[C@H](F)CO2)cs1 [Example 378, N-[5-[(2S,5R,6S)-5-amino-6-fluoro-oxepan-2-yl]-1-methyl-pyrazol-4-yl]-2-[3-(difluoromethyl)-2-fluoro-6-methoxy-phenyl]thiazole-4-carboxamide] | 1.48
Cn1ncc(NC(=O)c2csc(-c3ccncc3F)n2)c1[C@@H]1CC[C@@H](N)[C@H](F)CO1 [Example 240, N-(5-((2S,5R,6S)-5-amino-6-fluorooxepan-2-yl)-1-methyl-1H-pyrazol-4-yl)-2-(3-fluoropyridin-4-yl)thiazole-4-carboxamide] | 0.34
Cn1ncc(NC(=O)c2csc(-c3c(F)cncc3F)n2)c1[C@@H]1CC[C@@H](N)[C@@H](F)CO1 [Example 247, N-(5-((2S,5R,6R)-5-amino-6-fluorooxepan-2-yl)-1-methyl-1H-pyrazol-4-yl)-2-(3,5-difluoropyridin-4-yl)thiazole-4-carboxamide] | 0.112
Cn1ncc(NC(=O)c2csc(-c3ccc(Cl)cc3F)n2)c1[C@@H]1CC[C@@H](N)[C@H](F)CO1 [Example 313, N-(5-((2S,5R,6S)-5-amino-6-fluorooxepan-2-yl)-1-methyl-1H-pyrazol-4-yl)-2-(4-chloro-2-fluorophenyl)thiazole-4-carboxamide] | 0.002
Cn1ncc(NC(=O)c2csc(-c3cccc(OCc4ccccc4)c3)n2)c1[C@@H]1CC[C@@H](N)[C@H](F)CO1 [Example 401, N-[5-[(2S,5R,6S)-5-amino-6-fluoro-oxepan-2-yl]-1-methyl-pyrazol-4-yl]-2-(3-benzyloxyphenyl)thiazole-4-carboxamide] | 0.447
Cn1ncc(NC(=O)c2ccc(F)c(-c3c(F)cc(C4(O)CCC4)cc3F)n2)c1[C@@H]1CC[C@@H](N)[C@@H](F)CO1 [Example 290, N-(5-((2S,5R,6R)-5-amino-6-fluorooxepan-2-yl)-1-methyl-1H-pyrazol-4-yl)-6-(2,6-difluoro-4-(1-hydroxycyclobutyl)phenyl)-5-fluoropicolinamide] | 0.0131
CCc1ccc(F)c(-c2nc(C(=O)Nc3cnn(C)c3[C@@H]3CC[C@@H](N)[C@H](F)CO3)cs2)c1 [Example 307, N-(5-((2S,5R,6S)-5-amino-6-fluorooxepan-2-yl)-1-methyl-1H-pyrazol-4-yl)-2-(5-ethyl-2-fluorophenyl)thiazole-4-carboxamide] | 0.081
COc1ccc(F)c(-c2nc(C(=O)Nc3cnn(C)c3[C@@H]3CC[C@@H](N)[C@H](F)CO3)cs2)c1F [Example 229, N-(5-((2S,5R,6S)-5-amino-6-fluorooxepan-2-yl)-1-methyl-1H-pyrazol-4-yl)-2-(2,6-difluoro-3-methoxyphenyl)thiazole-4-carboxamide] | 0.001
COC(C)c1cc(F)c(-c2nc(C(=O)Nc3cnn(C)c3[C@@H]3CC[C@@H](N)[C@@H](F)CO3)ccc2F)c(F)c1 (stereo partly drawn) [Example 211, N-(5-((2S,5R,6R)-5-amino-6-fluorooxepan-2-yl)-1-methyl-1H-pyrazol-4-yl)-6-(2,6-difluoro-4-(1-methoxyethyl)phenyl)-5-fluoropicolinamide] | 0.037
Cn1ncc(NC(=O)c2nc(-c3c(F)cccc3F)sc2N)c1[C@H]1C[C@@H](N)CCO1 [Example 159, 5-Amino-N-[5-[(2R,4S)-4-aminotetrahydropyran-2-yl]-1-methyl-pyrazol-4-yl]-2-(2,6-difluorophenyl)thiazole-4-carboxamide] | 0.019
COc1cc(F)c(-c2nc(C(=O)Nc3cnn(C)c3[C@@H]3CC[C@@H](N)[C@H](F)CO3)cs2)c(F)c1 [Example 296, N-(5-((2S,5R,6S)-5-amino-6-fluorooxepan-2-yl)-1-methyl-1H-pyrazol-4-yl)-2-(2,6-difluoro-4-methoxyphenyl)thiazole-4-carboxamide] | 0.031
CC(=O)Nc1ccc(-c2nc(C(=O)Nc3cnn(C)c3[C@@H]3CC[C@@H](N)[C@H](F)CO3)cs2)cn1 [Example 386, 2-(6-acetamido-3-pyridyl)-N-[5-[(2S,5R,6S)-5-amino-6-fluoro-oxepan-2-yl]-1-methyl-pyrazol-4-yl]thiazole-4-carboxamide] | 0.389
Cn1ncc(NC(=O)c2nc(-c3cccc(F)c3C(F)(F)F)sc2N)c1[C@@H]1CC[C@@H](N)[C@@H](F)CO1 [Example 267, 5-amino-N-(5-((2S,5R,6R)-5-amino-6-fluorooxepan-2-yl)-1-methyl-1H-pyrazol-4-yl)-2-(3-fluoro-2-(trifluoromethyl)phenyl)thiazole-4-carboxamide] | 0.098
COc1ccc(-c2nc(C(=O)Nc3cnn(C)c3[C@@H]3CC[C@@H](N)[C@@H](F)CO3)cs2)c(F)c1 [Example 287, N-(5-((2S,5R,6R)-5-amino-6-fluorooxepan-2-yl)-1-methyl-1H-pyrazol-4-yl)-2-(2-fluoro-4-methoxyphenyl)thiazole-4-carboxamide] | 0.053
Cn1ncc(NC(=O)c2nc(-c3ccccc3OC(F)(F)F)sc2N)c1[C@@H]1CC[C@@H](N)[C@@H](F)CO1 [Example 266, 5-amino-N-(5-((2S,5R,6R)-5-amino-6-fluorooxepan-2-yl)-1-methyl-1H-pyrazol-4-yl)-2-(2-(trifluoromethoxy)phenyl)thiazole-4-carboxamide] | 0.155
